The target of this assay is Bek (Homo sapiens, UniProt P21802). Description: Inhibitory activity against Bek-autophosphorylation using ELISA method in OCUM-2MD3 cells. The format is cell-based. Conditions: 1 hr with compound, read-out: IC50 (concentration necessary for inhibiting 50% of Bek-phosphorylation). The method, boiled down:
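Sandwich ELISA (anti-phosphotyrosine capture, anti-Bek detection, peroxidase, 450 nm) measured Bek autophosphorylation in OCUM-2MD3 lysates after 1 hr compound treatment at 37° C in 0.1% serum medium. IC50 derived by scaling between no-drug (100%) and excess positive control at 1000 nM (0%).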
On the technique in general: ELISA stands for enzyme-linked immunosorbent assay.
Chain of Bek (P21802 431-767 limits assumed): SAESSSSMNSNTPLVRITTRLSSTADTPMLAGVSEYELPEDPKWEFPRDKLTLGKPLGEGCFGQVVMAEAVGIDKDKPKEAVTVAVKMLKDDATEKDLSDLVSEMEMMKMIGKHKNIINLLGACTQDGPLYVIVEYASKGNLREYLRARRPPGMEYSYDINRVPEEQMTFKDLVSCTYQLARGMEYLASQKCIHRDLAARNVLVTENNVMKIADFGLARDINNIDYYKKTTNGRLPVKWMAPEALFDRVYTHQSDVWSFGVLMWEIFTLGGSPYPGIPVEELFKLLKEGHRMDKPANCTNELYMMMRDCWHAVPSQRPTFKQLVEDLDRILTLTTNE
Turning to `COc1cc2c(Oc3ccc(NC(=O)NCCC(C)(C)C)cc3)ccnc2cc1OCCCN1CCC(Cc2ccccc2)CC1` [Compound 247, 1-(4-{7-[3-(4-Benzyl-piperidin-1-yl)-propoxy]-6-methoxy-quinolin-4-yloxy}-phenyl)-3-(3,3-dimethyl-butyl)-urea], the IC50 turned out to be 81.9 nM.

On to `COc1cc2ncnc(Oc3ccc(Nc4ccc(C(C)C)cc4)cc3)c2cc1OC` [Compound 72, [4-(6,7-Dimethoxyquinazolin-4-yloxy)phenyl]-(4-isopropyl-phenyl)amine], for which the IC50 stood at 836 nM. Consider `COc1cc2nccc(Oc3ccc(NC(=O)NC4CC(C)CC(C)(C)C4)c(F)c3)c2cc1OC` (stereo not shown) [Compound 106, 1-[4-(6,7-Dimethoxy-quinolin-4-yloxy)-2-fluoro-phenyl]-3-(3,3,5-trimethyl-cyclohexyl)-urea], for which the IC50 stood at 19.7 nM. The figure for `COc1cc2c(Oc3ccc(Nc4ccc(C(C)(C)C)cc4)cc3)ncnc2cc1OCCN1CCOCC1` [Compound 78, (4-Tert-butylphenyl)-{4-[6-methoxy-7-(2-morpholin-4-ylethoxy)quinazolin-4-yloxy]phenyl}amine] is 274 nM; for `COc1cc2c(Oc3ccc(NC(=O)NCCC(C)(C)C)c(F)c3)ccnc2cc1OCCCCl` [Compound 204, 1-{4-[7-(3-Chloro-propoxy)-6-methoxy-quinolin-4-yloxy]-2-fluoro-phenyl}-3-(3,3-dimethyl-butyl)-urea] it is 234 nM. The figure for `COc1cc2c(Oc3ccc(Nc4ccc(C(C)(C)C)cc4)cc3)ccnc2cc1OCCCN1CCC(N2CCCC2)CC1` [Compound 237, (4-Tert-butyl-phenyl)-(4-{6-methoxy-7-[3-(4-pyrrolidin-1-yl-piperidin-1-yl)-propoxy]-quinolin-4-yloxy}-phenyl)-amine] is 207 nM; for `COc1cc2c(Oc3ccc(NC(=O)NCCC(C)(C)C)c(Cl)c3)ccnc2cc1OCCCN1CCCCCC1` [Compound 181, 1-{4-[7-(3-Azepan-1-yl-propoxy)-6-methoxy-quinolin-4-yloxy]-2-chloro-phenyl}-3-(3,3-dimethyl-butyl)-urea] it is 26.2 nM. For `COc1cc2c(Oc3ccc(Nc4ccc(C(C)(C)C)cc4)cc3)ccnc2cc1OCCN1CC(C)CC(C)C1` (stereo not shown) [Compound 239, (4-Tert-butyl-phenyl)-(4-{7-[2-(3,5-dimethyl-piperidin-1-yl)-ethoxy]-6-methoxy-quinolin-4-yloxy}-phenyl)-amine], the IC50 is 895 nM. The figure for `COc1cc2nccc(Oc3ccc(NC(=O)NCCC(C)(C)C)cc3C)c2cc1OC` [Compound 137, 1-[4-(6,7-Dimethoxy-quinolin-4-yloxy)-3-methyl-phenyl]-3-(3,3-dimethyl-butyl)-urea] is 66.7 nM; for `COc1cc2c(Oc3ccc(Nc4ccc(C(C)(C)C)cc4)cc3)ccnc2cc1OCCN(C)C` [Compound 40, N1-[4-(Tert-butyl)phenyl]-4-({7-[2-(dimethylamino)ethoxy]-6-methoxy-4-quinolyl}oxy)aniline] it is 924 nM. To `COCCN1CCC(COc2cc3nccc(Oc4ccc(NC(=O)NCCC(C)(C)C)c(Cl)c4)c3cc2OC)CC1` [Compound 171, 1-(2-Chloro-4-{6-methoxy-7-[1-(2-methoxy-ethyl)-piperidin-4-ylmethoxy]-quinolin-4-yloxy}-phenyl)-3-(3,3-dimethyl-butyl)-urea] belongs 32.4 nM; to `COc1cc2c(Oc3ccc(Nc4ccc(C(C)(C)C)cc4)c(F)c3)ccnc2cc1OCCN1CCOCC1` [Compound 79, (4-Tert-butylphenyl)-{2-fluoro-4-[6-methoxy-7-(2-morpholin-4-ylethoxy)quinolin-4-yloxy]phenyl}amine], 159 nM; to `COc1cc2c(Oc3ccc(NC(=O)NCCC(C)(C)C)cc3Cl)ccnc2cc1OCCCN1CCOCC1` [Compound 318, 1-{3-Chloro-4-[6-methoxy-7-(3-morpholin-4-yl-propoxy)-quinolin-4-yloxy]-phenyl}-3-(3,3-dimethyl-butyl)-urea], 18.7 nM.
